Experimental data taken from patent US20230338378A1, “Methods of Administering Myosin Inhibitors” (MYOKARDIA, INC., priority 2022, published 2023).
Read-outs that look alike come from different tables or passages of the source.

Assays:
[1] = Clinical pharmacokinetics of mavacamten; type: in vivo, human; settings: for half-life: plasma, read-out: terminal half-life (converted)
CYP3A4 [2] = target: T1, CYP3A4 (Homo sapiens, UniProt P08684); test: Metabolism through CYP enzymes
CYP2C9 [3] = target: T2, CYP2C9 (Homo sapiens, UniProt P11712); test: Metabolism through CYP enzymes
[4] = Excretion after a single 25 mg dose of radiolabeled mavacamten; type: in vivo; settings: single 25 mg dose of radiolabeled mavacamten
Procedure: Following a single 25 mg dose of radiolabeled mavacamten, 7% of the dose was recovered in feces (1% unchanged) and 85% in urine (3% unchanged).

CYP2C9 [5] = target: T2, CYP2C9; test: In vitro CYP inhibition; type: in vitro ADME; settings: In Vitro Studies; clinically relevant concentrations
CYP2C19 = CYP2C19 (Homo sapiens, UniProt P33261); test: In vitro CYP inhibition; type: in vitro ADME; settings: In Vitro Studies; clinically relevant concentrations
[6] = test system: organic cation transporters (OCTs); test: In vitro transporter inhibition; type: in vitro ADME; settings: In Vitro Studies
dogs = test: Oral animal toxicology at multiple dose levels; type: in vivo
Procedure: (§1) The safety of mavacamten has been evaluated in rats and dogs at multiple dose levels (0.06 to 10 mg/kg/day) orally. […] Plasma exposures (AUC) at the NOAEL in rats and dogs were 0.1 and 0.3 times, respectively, human exposure (AUC) at the MRHD.

rats = test: Oral animal toxicology at multiple dose levels; type: in vivo
Procedure: as §1

healthy volunteers = test: Cardiac electrophysiology (QTc) in healthy volunteers; type: in vivo, human
Text: The mechanism of the QT prolongation effect is not known.

Solubility = type: physicochemical
CYP2C19, CYP3A4 = test: Established and Potentially Significant Pharmacokinetic Drug Interactions with MAVACAMTEN (Table 1); settings: Concomitant use with a moderate to strong CYP2C19 inducer or a moderate to strong CYP3A4 inducer
CYP3A4 [7] = target: T1, CYP3A4; test: Concomitant use with moderate CYP3A4 inhibitor verapamil; type: in vivo; design: Mavacamten is hepatically metabolized predominantly via CYP2C19 (74%), CYP3A4 (18%) and CYP2C9 (8%); from tissue; host or cells: liver of human subjects in vivo, or a Simcyp virtual population; settings: mavacamten 25 mg with verapamil sustained release 240 mg; CYP2C19 IMs and NMs

T1 sequence (P08684 whole entry): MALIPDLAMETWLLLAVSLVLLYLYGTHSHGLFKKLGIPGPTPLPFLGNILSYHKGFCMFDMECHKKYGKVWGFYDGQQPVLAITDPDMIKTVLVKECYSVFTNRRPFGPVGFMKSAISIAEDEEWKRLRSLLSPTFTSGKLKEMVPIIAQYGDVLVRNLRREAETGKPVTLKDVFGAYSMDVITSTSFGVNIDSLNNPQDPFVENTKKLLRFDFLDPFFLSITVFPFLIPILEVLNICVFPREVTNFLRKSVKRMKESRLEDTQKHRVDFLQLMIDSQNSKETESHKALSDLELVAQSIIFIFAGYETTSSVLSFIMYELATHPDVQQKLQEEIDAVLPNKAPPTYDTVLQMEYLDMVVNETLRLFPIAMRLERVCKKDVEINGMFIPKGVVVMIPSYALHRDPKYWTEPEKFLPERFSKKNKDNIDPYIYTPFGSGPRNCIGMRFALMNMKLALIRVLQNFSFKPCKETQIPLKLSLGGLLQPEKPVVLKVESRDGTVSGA
T2 sequence (P11712 whole entry): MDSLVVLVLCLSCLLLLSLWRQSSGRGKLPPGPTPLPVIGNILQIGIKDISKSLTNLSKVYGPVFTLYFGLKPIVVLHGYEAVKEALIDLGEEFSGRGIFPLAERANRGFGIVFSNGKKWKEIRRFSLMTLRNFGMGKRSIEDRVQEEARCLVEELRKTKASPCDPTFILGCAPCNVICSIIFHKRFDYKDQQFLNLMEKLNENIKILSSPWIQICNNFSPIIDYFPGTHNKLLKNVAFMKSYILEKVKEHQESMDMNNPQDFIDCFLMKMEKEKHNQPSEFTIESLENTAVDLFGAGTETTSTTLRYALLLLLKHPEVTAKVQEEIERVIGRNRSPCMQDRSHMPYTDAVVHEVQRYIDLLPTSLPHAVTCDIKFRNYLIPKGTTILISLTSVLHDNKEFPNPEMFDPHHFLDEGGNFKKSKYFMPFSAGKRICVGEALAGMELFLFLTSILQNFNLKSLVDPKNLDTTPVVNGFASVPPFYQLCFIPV
CYP2C19, sequence (P33261 whole entry): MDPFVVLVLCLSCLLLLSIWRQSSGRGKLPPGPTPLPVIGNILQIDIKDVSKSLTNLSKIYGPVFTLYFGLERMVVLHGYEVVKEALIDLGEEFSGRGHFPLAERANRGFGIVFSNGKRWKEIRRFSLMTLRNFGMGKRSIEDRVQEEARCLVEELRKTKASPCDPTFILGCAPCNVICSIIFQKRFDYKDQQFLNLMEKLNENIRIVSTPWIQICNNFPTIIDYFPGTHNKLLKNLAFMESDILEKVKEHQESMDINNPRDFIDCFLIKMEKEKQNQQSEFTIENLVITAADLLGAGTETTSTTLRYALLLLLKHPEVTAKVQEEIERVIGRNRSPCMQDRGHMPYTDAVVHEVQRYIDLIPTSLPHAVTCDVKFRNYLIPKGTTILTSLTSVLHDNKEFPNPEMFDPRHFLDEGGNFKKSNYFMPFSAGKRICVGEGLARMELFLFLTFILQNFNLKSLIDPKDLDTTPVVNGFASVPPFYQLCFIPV

SMILES: CC(C)n1c(=O)cc(N[C@@H](C)c2ccccc2)[nH]c1=O [mavacamten, (S)-3-Isopropyl-6-((1-phenylethyl)amino)pyrimidine-2,4(1H,3H)-dione]
- accumulation ratio for AUC ([1]; CYP2C19 NMs): about 7 fold
- accumulation ratio for Cmax ([1]; CYP2C19 NMs): about 2 fold
- pharmacokinetics with a high fat meal ([1]; Effect of Food): No clinically significant differences
- pharmacokinetics by age (18-82 years), sex, race, ethnicity, or mild to moderate renal impairment ([1]; Specific Populations): No clinically significant differences
- Tmax ([1]; human, in vivo, oral, read-out: time to maximum concentration (Tmax)): 1 h
- bioavailability ([1]; human, in vivo, po, read-out: estimated oral bioavailability): ≥ 85%
- half-life ([1]; human, oral, CYP2C19 normal metabolizers (NMs)): 144 to 216 h
- half-life ([1]; human, oral, CYP2C19 poor metabolizers (PMs)): 552 h
- exposure vs dose ([1]; multiple once-daily doses of 1 mg to 15 mg): increases generally dose proportionally
- higher exposures in patients with HCM compared to healthy subjects ([1]; same dose level): 170%
- peak-to-trough plasma concentration ratio ([1]; steady-state, once daily dosing): approximately 1.5
- metabolized through CYP3A4 (CYP3A4 [2]): 18%
- metabolized through CYP2C9 (CYP2C9 [3]): 8%
- dose recovered in feces [4]: 7%
- dose recovered in feces unchanged [4]: 1%
- dose recovered in urine [4]: 85%
- dose recovered in urine unchanged [4]: 3%
- inhibition of CYP2C9 (CYP2C9 [5]): not an inhibitor
- inhibition of CYP2C19 (CYP2C19): not an inhibitor
- inhibition of OCTs [6]: does not inhibit
- Other findings (dogs): QTc prolongation
- Plasma exposure (AUC) at the NOAEL vs human exposure (AUC) at the MRHD (dogs): 0.3 times
- Noted toxicities (dogs; 0.06 to 10 mg/kg/day orally): echocardiographic findings, reduction in systolic function, cardiac dilation, and death
- Other findings (rats): cardiac osseous metaplasia
- Plasma exposure (AUC) at the NOAEL vs human exposure (AUC) at the MRHD (rats): 0.1 times
- heart weights (rats): increased heart weights
- Noted toxicities (rats; 0.06 to 10 mg/kg/day orally): echocardiographic findings, reduction in systolic function, cardiac dilation, and death
- QTc interval (healthy volunteers; healthy volunteers, multiple doses up to 25 mg once daily): concentration-dependent increase in the QTc interval
- QTc interval (healthy volunteers; similar exposures during single-dose studies): No acute QTc changes
- solubility (Solubility; DMSO and NMP): freely soluble
- solubility (Solubility; methanol and ethanol): sparingly soluble
- solubility (Solubility; water and aqueous buffers at pH 2-10): practically insoluble
- Clinical Impact on mavacamten exposure (CYP2C19, CYP3A4): moderate to strong CYP3A4 inducer decreases mavacamten exposure,
- mavacamten AUCinf increase (CYP3A4 [7]): 15%
- mavacamten Cmax increase (CYP3A4 [7]): 52%
